From patent US8288379B2, “Thia-triaza-cyclopentazulenes” (Boehringer Ingelheim International GmbH, priority 2009, dated 2012) come the findings set out here.

The IC50 is the midpoint of a concentration-inhibition curve. One may read the EC50 as the concentration that produces a half-maximal response.

Assay [1] has as its target T1, FRAP1 (mTOR) kinase (Homo sapiens, UniProt P42345).
T1 construct: purchased Invitrogen PV4753
In words: Inhibition of mTOR-induced p-4E-BP1 phosphorylation (TR-FRET mTOR Activity Kit; Invitrogen). The settings on record: 400 nM GFP-4E-BP1 substrate, ~150 ng/mL mTOR, one hour at room temperature. Type of assay: biochemical. From the text: Inhibition of mTOR-Induced p-4E-BP1 Phosphorylation (TR-FRET mTOR Activity Kit; Invitrogen)
• GFP-4E-BP1 substrate; Invitrogen order no. PV4759 • Lanthascreen Tb-anti-p4E-BP1 (pThr46) Antibody Kit; Invitrogen order no. PV4758 • FRAP1 (mTOR) kinase; Invitrogen order no. […] Preparation of Reagents: Note: Thaw and keep mTOR, the substrate, ATP, and the antibody on ice prior to making working dilutions. Working dilutions of these components can be kept at room temperature for short periods of time the day of use. 1. Add 2 ml of 5× Assay Buffer to 8 ml water to prepare 10 ml of 1× Assay Buffer. Note: The concentration of 1× Assay Buffer is 50 mM HEPES pH 7.5, 0.01% Polysorbate 20, 1 mM EGTA, and 10 mM MnCl2. 2. Prepare Antibody/EDTA Solution by first adding 2.75 n1 of Tb-anti p4E-BP1 Antibody to 2397 n1 of LanthaScreen™ TR-FRET Dilution Buffer. Then, add 100 n1 of 0.5 M EDTA. 3. Prepare 4× Substrate/Enzyme Solution by first adding 72 n1 of GFP-4E-BP1 (22 nM) to 926 n1 of 1× Assay Buffer. Then, add 1.6 n1 of mTOR (0.45 mg/mL). 4. Prepare ATP Solution by adding 3.2 n1 of 10 mM ATP to 1997 n1 of 1× Assay Buffer. Serial Dilution of Inhibitors (16 Point Curve): Note: It is recommended that inhibitors be serially diluted in DMSO, then diluted to a 4× working concentration with 1× Assay Buffer. The below procedure describes dilution of compounds in a 96-well format prior to transfer to a 384-well format for kinase assays. This procedure calls for dilution of the compounds in 2 adjacent columns of a 96-well plate, which upon transfer to a single column of a 384-well plate with an 8-channel pipette will align the samples in order of concentration. 1. Dispense 40 n1 of DMSO to two adjacent columns of a 96 well plate per compound (e.g. columns 1 and 2). 2. Add 10 n1 of inhibitor stock (10 mM) to the first well of the first column (A1) and mix. 3. Remove 10 n1 from A1 and transfer to the adjacent well in the next column (B1) and mix. 4. Remove 10 n1 from B1 and transfer to the next well in the first column (B2) and mix. 5. Repeat this dilution pattern through well H1 and leave the last well (H2) as DMSO only. 6. Remove 4 n1 of diluted compounds and add to 96 n1 of 1× Assay Buffer in a 96-well plate making 4× compound dilutions. Kinase Reaction: 1. Add 2.5 μl of 4× compound dilutions from the first column of the 96-well plate to every other well of column 1 of a 384-well plate with an 8-channel pipette. Repeat for columns 2 and 3. 2. Add 2.5 n1 of 4× compound dilutions from the second column of the 96-well plate to the empty wells of column 1 of the 384-well plate with an 8-channel pipette. Repeat for columns 2 and 3. Note: This procedure aligns the compound dilutions in order of concentration. 3. Add 2.5 n1 of 4× Enzyme/Substrate Solution to all columns 1-6. 4. Preincubate for 30 min. at RT (shaker). 5. Add 5 n1 of ATP Solution to all wells to start reactions. 6. Shake the assay plate on a plate shaker for 30 seconds. 7. Incubate the assay plate for one hour at room temperature (20-25° C.). Stop Step and Fluorescence Detection: 1. Add 10 n1 of Antibody/EDTA Solution to each well in columns 1-9. 2. Shake the assay plate on a plate shaker for 30 seconds. 3. Incubate the assay plate for one hour at room temperature (20-25° C.). 4. Measure the GFP (FRET) and terbium (reference) emission signals on a fluorescence plate reader (e.g. Perkin Elmer Envision). Data Analysis: 1. Calculate the emission ratio for each sample by dividing the GFP (FRET) signal by the terbium (reference) signal. 2. Plot the concentration of each compound versus the emission ratio. Determine the concentration of compound required to reach 50% of the maximum signal (IC50). Determination of IC50 values can be obtained by curve fitting (sigmoidal dose response, variable slope) using Prism software from GraphPad). Inhibition of Proliferation: CyQuant PC-3 Description: […]
A general note: In TR-FRET formats the signal depends on donor and acceptor labels being close together.

The subject of assay [2] is PC-3 cells. The assay can be described thus: Inhibition of proliferation: CyQuant PC-3. As to conditions: 72 h; PC-3 human prostate carcinoma cells, incubated with compounds for 3 days, CyQuant NF DNA dye. Type of assay: cell-based. As to the method: • GFP-4E-BP1 substrate; Invitrogen order no. PV4759 • Lanthascreen Tb-anti-p4E-BP1 (pThr46) Antibody Kit; Invitrogen order no. PV4758 • FRAP1 (mTOR) kinase; Invitrogen order no. […] Preparation of Reagents: Note: Thaw and keep mTOR, the substrate, ATP, and the antibody on ice prior to making working dilutions. Working dilutions of these components can be kept at room temperature for short periods of time the day of use. 1. Add 2 ml of 5× Assay Buffer to 8 ml water to prepare 10 ml of 1× Assay Buffer. Note: The concentration of 1× Assay Buffer is 50 mM HEPES pH 7.5, 0.01% Polysorbate 20, 1 mM EGTA, and 10 mM MnCl2. 2. Prepare Antibody/EDTA Solution by first adding 2.75 n1 of Tb-anti p4E-BP1 Antibody to 2397 n1 of LanthaScreen™ TR-FRET Dilution Buffer. Then, add 100 n1 of 0.5 M EDTA. 3. Prepare 4× Substrate/Enzyme Solution by first adding 72 n1 of GFP-4E-BP1 (22 nM) to 926 n1 of 1× Assay Buffer. Then, add 1.6 n1 of mTOR (0.45 mg/mL). 4. Prepare ATP Solution by adding 3.2 n1 of 10 mM ATP to 1997 n1 of 1× Assay Buffer. Serial Dilution of Inhibitors (16 Point Curve): Note: It is recommended that inhibitors be serially diluted in DMSO, then diluted to a 4× working concentration with 1× Assay Buffer. The below procedure describes dilution of compounds in a 96-well format prior to transfer to a 384-well format for kinase assays. This procedure calls for dilution of the compounds in 2 adjacent columns of a 96-well plate, which upon transfer to a single column of a 384-well plate with an 8-channel pipette will align the samples in order of concentration. 1. Dispense 40 n1 of DMSO to two adjacent columns of a 96 well plate per compound (e.g. columns 1 and 2). 2. Add 10 n1 of inhibitor stock (10 mM) to the first well of the first column (A1) and mix. 3. Remove 10 n1 from A1 and transfer to the adjacent well in the next column (B1) and mix. 4. Remove 10 n1 from B1 and transfer to the next well in the first column (B2) and mix. 5. Repeat this dilution pattern through well H1 and leave the last well (H2) as DMSO only. 6. Remove 4 n1 of diluted compounds and add to 96 n1 of 1× Assay Buffer in a 96-well plate making 4× compound dilutions. Kinase Reaction: 1. Add 2.5 μl of 4× compound dilutions from the first column of the 96-well plate to every other well of column 1 of a 384-well plate with an 8-channel pipette. Repeat for columns 2 and 3. 2. Add 2.5 n1 of 4× compound dilutions from the second column of the 96-well plate to the empty wells of column 1 of the 384-well plate with an 8-channel pipette. Repeat for columns 2 and 3. Note: This procedure aligns the compound dilutions in order of concentration. 3. Add 2.5 n1 of 4× Enzyme/Substrate Solution to all columns 1-6. 4. Preincubate for 30 min. at RT (shaker). 5. Add 5 n1 of ATP Solution to all wells to start reactions. 6. Shake the assay plate on a plate shaker for 30 seconds. 7. Incubate the assay plate for one hour at room temperature (20-25° C.). Stop Step and Fluorescence Detection: 1. Add 10 n1 of Antibody/EDTA Solution to each well in columns 1-9. 2. Shake the assay plate on a plate shaker for 30 seconds. 3. Incubate the assay plate for one hour at room temperature (20-25° C.). 4. Measure the GFP (FRET) and terbium (reference) emission signals on a fluorescence plate reader (e.g. Perkin Elmer Envision). Data Analysis: 1. Calculate the emission ratio for each sample by dividing the GFP (FRET) signal by the terbium (reference) signal. 2. Plot the concentration of each compound versus the emission ratio. Determine the concentration of compound required to reach 50% of the maximum signal (IC50). Determination of IC50 values can be obtained by curve fitting (sigmoidal dose response, variable slope) using Prism software from GraphPad). Inhibition of Proliferation: CyQuant PC-3 Description:
The CyQuant NF assay is based on measurement of cellular DNA content via fluorescent dye binding. Because cellular DNA content is highly regulated, it is closely proportional to cell number. […]

Molecules are shown by their SMILES.

T1 sequence (P42345 1360-2549 limits assumed): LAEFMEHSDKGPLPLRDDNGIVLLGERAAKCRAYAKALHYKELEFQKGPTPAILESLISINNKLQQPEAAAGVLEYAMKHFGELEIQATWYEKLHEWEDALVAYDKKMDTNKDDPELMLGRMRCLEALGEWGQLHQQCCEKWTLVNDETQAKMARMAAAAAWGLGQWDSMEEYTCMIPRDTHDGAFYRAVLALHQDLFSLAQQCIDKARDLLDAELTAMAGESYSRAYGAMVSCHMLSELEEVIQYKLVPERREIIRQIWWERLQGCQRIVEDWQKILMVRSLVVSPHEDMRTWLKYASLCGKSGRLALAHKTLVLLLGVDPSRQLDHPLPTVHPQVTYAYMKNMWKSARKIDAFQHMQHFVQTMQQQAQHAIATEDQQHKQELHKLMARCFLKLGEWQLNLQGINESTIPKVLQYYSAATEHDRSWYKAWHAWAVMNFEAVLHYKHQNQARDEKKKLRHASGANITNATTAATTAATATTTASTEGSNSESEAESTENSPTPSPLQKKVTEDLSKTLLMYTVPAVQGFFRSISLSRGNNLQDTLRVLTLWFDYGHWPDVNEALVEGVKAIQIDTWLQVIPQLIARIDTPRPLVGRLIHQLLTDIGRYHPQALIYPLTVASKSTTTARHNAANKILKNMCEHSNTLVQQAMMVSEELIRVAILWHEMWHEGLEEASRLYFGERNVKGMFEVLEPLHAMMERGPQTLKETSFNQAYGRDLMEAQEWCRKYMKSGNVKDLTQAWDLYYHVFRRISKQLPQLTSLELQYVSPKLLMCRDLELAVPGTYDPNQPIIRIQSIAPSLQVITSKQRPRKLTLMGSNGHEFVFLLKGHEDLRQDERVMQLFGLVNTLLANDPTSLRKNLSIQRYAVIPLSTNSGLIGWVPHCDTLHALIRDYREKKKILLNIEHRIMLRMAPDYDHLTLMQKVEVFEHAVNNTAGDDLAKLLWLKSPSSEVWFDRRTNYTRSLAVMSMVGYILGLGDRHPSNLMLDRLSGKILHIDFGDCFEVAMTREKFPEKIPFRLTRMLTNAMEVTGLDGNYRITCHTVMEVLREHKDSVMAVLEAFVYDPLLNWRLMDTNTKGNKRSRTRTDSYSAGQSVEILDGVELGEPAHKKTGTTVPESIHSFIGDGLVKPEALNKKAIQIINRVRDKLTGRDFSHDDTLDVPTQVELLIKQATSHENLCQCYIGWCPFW

For the compound `CCNc1ccc(-c2nn(-c3ccccc3F)c3c2CCCc2nc(NC(C)=O)sc2-3)cn1` [Example B-76, N-[3-(6-Ethylamino-pyridin-3-yl)-1-(2-fluoro-phenyl)-1,4,5,6-tetrahydro-9-thia-1,2,7-triaza-cyclopenta[e]azulen-8-yl]-acetamide], the half-inhibitory concentration (IC50) in assay [1] was found to be 31 nM. Also, the EC50 in assay [2] is 79 nM.
The corresponding values for `CC(C)n1nc(-c2ccc(N)nc2)c2c1-c1sc(NC(=O)CCCN(C)C)nc1CCC2` [Example B-135, N-[3-(6-Amino-pyridin-3-yl)-1-isopropyl-1,4,5,6-tetrahydro-9-thia-1,2,7-triaza-cyclopenta[e]azulen-8-yl]-4-dimethylamino-butyramide] are 44 nM and 79 nM.
For `CCNc1ccc(-c2nn(-c3ccccc3OC)c3c2CCCc2nc(NC(C)=O)sc2-3)cn1` [Example B-78], in that order: 136 nM and 249 nM.
`CNc1ccc(-c2nn(-c3ccccc3Cl)c3c2CCCc2nc(NC(=O)N(C)C)sc2-3)cn1` [Example B-45]: in assay [1], the IC50 is 782 nM. Further, the concentration giving a half-maximal response (EC50) in assay [2] turned out to be 375 nM.
For `CC(=O)Nc1nc2c(s1)-c1c(c(-c3ccc(C)nc3)nn1C(C)C)CCC2` [Example B-09, N-[1-Isopropyl-3-(6-methyl-pyridin-3-yl)-1,4,5,6-tetrahydro-9-thia-1,2,7-triaza-cyclopent[e]azulen-8-yl]acetamide], in that order: 266 nM and 334 nM.
Compound `CC(=O)Nc1nc2c(s1)-c1c(c(-c3ccc(C)nc3)nn1-c1ccccc1F)CCC2` [Example B-17, N-[1-(2-Fluoro-phenyl)-3-(6-methyl-pyridin-3-yl)-1,4,5,6-tetrahydro-9-thia-1,2,7-triaza-cyclopenta[e]azulen-8-yl]-acetamide] yielded an IC50 in assay [1] of 53 nM. In assay [2], the EC50 came to 114 nM.
For `CNc1ccc(-c2nn(C(C)C)c3c2CCCc2nc(NC(C)=O)sc2-3)cn1` [Example B-05, N-[1-Isopropyl-3-(6-methylamino-pyridin-3-yl)-1,4,5,6-tetrahydro-9-thia-1,2,7-triaza-cyclopenta[e]azulen-8-yl]-acetamide], in that order: 24 nM and 95 nM.
For `CC(=O)Nc1nc2c(s1)-c1c(c(-c3ccc(C)nc3)nn1C1CCN(C3CC3)CC1)CCC2` [Example B-12, N-[1-(1-Cyclopropyl-piperidin-4-yl)-3-(6-methyl-pyridin-3-yl)-1,4,5,6-tetrahydro-9-thia-1,2,7-triaza-cyclopent[e]azulen-8-yl]acetamide], in that order: 31 nM and 127 nM.
`Cc1ccccc1-n1nc(-c2ccc(N)nc2)c2c1-c1sc(NC(=O)N(C)C)nc1CCC2` [Example B-55] had an IC50 in assay [1] of 170 nM. In addition, in assay [2], the EC50 was 450 nM.
In assay [1], `CNc1ccc(-c2nn(-c3ccccc3)c3c2CCCc2nc(NC(C)=O)sc2-3)cn1` [Example B-87, N-[3-(6-Methylamino-pyridin-3-yl)-1-phenyl-1,4,5,6-tetrahydro-9-thia-1,2,7-triaza-cyclopenta[e]azulen-8-yl]-acetamide] returned a 50% inhibitory concentration (IC50) of 55 nM. Besides, the 50% effective concentration (EC50) in assay [2] was determined as 21 nM.
For `CNc1ccc(-c2nn(C3CCN(C)CC3)c3c2CCCc2nc(NC(=O)N(C)C)sc2-3)cn1` [Example B-56], in that order: 379 nM and 579 nM.
Consider `CC(=O)Nc1nc2c(s1)-c1c(c(-c3c[nH]c(C)n3)nn1CC(C)C)CCC2` [Example B-121, N-[1-Isobutyl-3-(2-methyl-1H-imidazol-4-yl)-1,4,5,6-tetrahydro-9-thia-1,2,7-triaza-cyclopenta[e]azulen-8-yl]-acetamide], for which, in assay [1], the IC50 is 35 nM. The half-maximal effective concentration (EC50) in assay [2] was determined as 73 nM.
The corresponding values for `CNc1ccc(-c2nn(C3CCCOC3)c3c2CCCc2nc(NC(C)=O)sc2-3)cn1` (centres unmarked) [Example B-83, N-[3-(6-Methylamino-pyridin-3-yl)-1-(tetrahydro-pyran-3-yl)-1,4,5,6-tetrahydro-9-thia-1,2,7-triaza-cyclopenta[e]azulen-8-yl]-acetamide] are 65 nM and 41 nM.
